What all share (assay): DTP human tumour cell line panel, 48 h
For test [1], the system named is KM12.
The test system of test [2] is RPMI-8226.
Test [3] concerns SN12C.
Test [4] has as its system OVCAR-8.
Test [5] has as its system 786-0.
The test system of test [6] is HCC 2998.
The test system of test [7] is SF-268.
The subject of test [8] is IGROV-1.
The test system of test [9] is OVCAR-4.
Test [10] has as its system HCT-116.
Test [11] has as its system NCI-H460.
Test [12] concerns UACC-62.
The test system of test [13] is COLO 205.
Test [14] concerns UACC-257.
The test system of test [15] is MOLT-4.
For test [16], the system named is K562.
The test system of test [17] is OVCAR-5.

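Protocol summary: plate cells (96-well), add compound at 5 concentrations, incubate 48 h, interpolate endpoints linearly. GI50 is the concentration that inhibits growth by half.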 Activity calls are given as the source filed them. No stated cut-off is given here; in the data, active = GI50 up to about 1.1 µM and inactive = higher. Some results are limits rather than exact numbers.

As to `CNC(=O)OCc1nccc2c(C)c3[nH]c4ccc(OC)cc4c3cc12`, the GI50 (usually the concentration giving 50% growth inhibition) in test [1] was 3.78 µM (inactive); in test [2] it was 2.59 µM (inactive); in [3], 19.1 µM (inactive); in test [4] it was 3.1 µM (inactive); in [5], 3.78 µM (inactive); in test [6] it was 5.57 µM (inactive). Moreover, the GI50 in test [7] is 10.5 µM (inactive); in [8] it was 4.8 µM (inactive); in test [9] it was 8.11 µM (inactive); in [10], 1.95 µM (inactive); in test [11] it was 1.08 µM (active); in [12], 6.37 µM (inactive). Besides, the GI50 in [13] is 2.94 µM (inactive); in test [14] it was 11.3 µM (inactive); in test [15], 0.705 µM (active); in test [16], 2.7 µM (inactive); in test [17] it was 22 µM (inactive).

As for `N#Cc1c2c(c(Cl)n3c1nc1ccccc13)CCCC2`, the GI50 in test [2] is 1.7 µM (inactive); in test [3], 2.09 µM (inactive); in test [4], 2.57 µM (inactive); in [5] it was 1.77 µM (inactive); in test [6] it was 16.4 µM (inactive); in test [7] it was 2.58 µM (inactive). The GI50 in test [8] is 2.69 µM (inactive); in test [9], 4.35 µM (inactive); in [10], 2.75 µM (inactive); in [11], 1.69 µM (inactive); in test [13], 5.12 µM (inactive); in test [14], 2.05 µM (inactive). For the same compound, the GI50 in test [15] was 3.89 µM (inactive); in test [16] it was 2.5 µM (inactive); in test [17], 18.4 µM (inactive).

Regarding `NC1=NC(=O)/C(=C/c2ccccc2[N+](=O)[O-])C(N)=N1`, the GI50 in test [1], in test [2], in test [3], in test [4], in test [5] and in test [6] was > 100 µM (inactive) each time. Also, the GI50 in test [8], in [9], in [10], in test [11], in test [12] and in test [13] was > 100 µM (inactive) each time. For the same compound, the GI50 in test [14], in test [15], in test [16] and in test [17] was > 100 µM (inactive) throughout.

`C=CCN(CC=C)CC(C(C)=O)C(c1ccccc1)c1c(O)c2ccccc2oc1=O` (configuration not stated): the GI50 in test [1] was 19 µM (inactive); in [2], > 100 µM (inactive); in [3] it was > 100 µM (inactive); in test [4] it was > 100 µM (inactive); in test [5], > 100 µM (inactive); in test [6], > 100 µM (inactive). Also, the GI50 in test [7], in test [8], in [9], in [10], in test [12] and in test [13] was > 100 µM (inactive) throughout. Moreover, the GI50 in test [14], in test [15], in [16] and in [17] was > 100 µM (inactive) throughout.

For the compound `Nn1c(=O)n(Cc2ccccc2)n(-c2ccccc2)c1=O`, the GI50 in test [1], in [2], in test [3], in [4], in [5] and in test [6] was > 100 µM (inactive) throughout. The GI50 in [7], in test [8], in test [9], in test [10], in test [11] and in [12] was > 100 µM (inactive) in each case. Further, the GI50 in test [14], in [15], in test [16] and in [17] was > 100 µM (inactive) each time.

Turning to `CCOc1ccccc1NC(=O)CC1SC(Nc2ccc([N+](=O)[O-])cc2)=NC1=O` (configuration not stated), the GI50 in test [1] was 18.7 µM (inactive); in [2], 6.95 µM (inactive); in test [3], 20.4 µM (inactive); in [4] it was 21.5 µM (inactive); in test [5] it was 16.7 µM (inactive); in [6], 16.4 µM (inactive). Besides, the GI50 in test [7] is 29.9 µM (inactive); in test [8] it was 23.2 µM (inactive); in test [9], 11.6 µM (inactive); in test [10] it was 15.3 µM (inactive); in test [11] it was 21.3 µM (inactive); in [12], 17.2 µM (inactive). The GI50 was 19.5 µM (inactive) in test [13], 17.3 µM (inactive) in test [14], 19 µM (inactive) in test [15] and 29.1 µM (inactive) in [17].

As to `CCOc1ccccc1NC(=O)C1=C(C)NC(C)=C(C(=O)Nc2ccccc2OCC)C1c1ccc2c(c1)OCO2`, the GI50 in test [1] is 11.8 µM (inactive); in [2] it was 17.4 µM (inactive); in [3], 38.7 µM (inactive); in test [4], 47.3 µM (inactive); in test [5] it was 41.3 µM (inactive); in test [6] it was 10.1 µM (inactive). The GI50 was 41.5 µM (inactive) in test [7]; 25 µM (inactive) in test [8]; 20.8 µM (inactive) in test [9]; 29.1 µM (inactive) in test [11]; 18.2 µM (inactive) in [13]; 22 µM (inactive) in [14]. Also, the GI50 in test [15] was 12.1 µM (inactive); in test [16], 6.01 µM (inactive); in test [17] it was 53.2 µM (inactive).

For `COC(=O)N1C=CC2=C(C)C3Nc4ccccc4C3C(C)=C2C1` (configuration not stated), the GI50 in test [2] is 0.804 µM (active); in [4], 0.682 µM (active); in [5], 0.54 µM (active); in [6], 1.95 µM (inactive); in test [7] it was 1.94 µM (inactive); in test [8] it was 1.47 µM (inactive). For the same compound, the GI50 in [9] is 1.34 µM (inactive); in test [10] it was 0.643 µM (active); in test [11], 0.256 µM (active); in test [12], 1.72 µM (inactive); in test [13], 1.15 µM (inactive); in [14], 3.21 µM (inactive). Besides, the 50% growth inhibitory concentration (GI50) is 0.234 µM (active) in test [15], 2.09 µM (inactive) in test [16] and 2.72 µM (inactive) in [17].

In the case of `Cc1ccccc1NC(=O)/C(=N/NC(=O)CC#N)C1C(=O)N(c2ccccc2)N=C1N` (configuration not stated), the GI50 was > 100 µM (inactive) in test [1]; 96.2 µM (inactive) in [2]; > 100 µM (inactive) in test [3]; > 100 µM (inactive) in test [4]; > 100 µM (inactive) in test [5]; > 100 µM (inactive) in [6]. For the same compound, the GI50 in [7], in [8], in test [9], in test [10], in test [11] and in test [12] was > 100 µM (inactive) each time. Besides, the GI50 in [13] was > 100 µM (inactive); in [14] it was > 100 µM (inactive); in test [15], 72.9 µM (inactive); in test [16] it was 75.5 µM (inactive); in test [17] it was > 100 µM (inactive).

For `CCOC(=O)C(=O)Nc1ccccc1C(C)C`, the GI50 in test [1], in [2], in [3], in [4], in test [5] and in test [6] was > 100 µM (inactive) each time. Moreover, the GI50 in test [7], in test [8], in test [9], in [10], in [11] and in test [12] was > 100 µM (inactive) throughout. Moreover, the GI50 in test [13], in test [14], in test [15], in test [16] and in test [17] was > 100 µM (inactive) each time.

Regarding `O=c1c2c([nH]c3cc4c(cc13)OCO4)-c1ccccc1C2`, the GI50 in test [1] is 18.6 µM (inactive); in test [2], 15 µM (inactive); in test [3], 30.3 µM (inactive); in [4], 29.8 µM (inactive); in test [5] it was 28.1 µM (inactive); in test [6], 24.4 µM (inactive). Further, the GI50 in test [7] is 36.2 µM (inactive); in test [8], 17.7 µM (inactive); in test [9], 33.3 µM (inactive); in test [10], 15.6 µM (inactive); in [11], 22.3 µM (inactive); in test [12] it was 17.1 µM (inactive). For the same compound, the GI50 was 17 µM (inactive) in test [13], 24.7 µM (inactive) in test [15] and 27.2 µM (inactive) in test [16].

On to `Cc1c(C(=O)O)oc2ccc([N+](=O)[O-])cc12`, for which the GI50 in test [1] is > 100 µM (inactive); in [2], > 10 µM (inactive); in test [3], > 100 µM (inactive); in test [4], > 100 µM (inactive); in test [5], > 100 µM (inactive); in test [6] it was > 100 µM (inactive). The GI50 in test [7], in [8], in test [9], in test [10], in test [11] and in [12] was > 100 µM (inactive) each time. Besides, the GI50 in [13] was > 100 µM (inactive); in test [14], > 100 µM (inactive); in test [15], > 10 µM (inactive); in test [16], > 100 µM (inactive); in [17] it was > 100 µM (inactive).

(Values after ChEMBL document CHEMBL1201862, “PubChem BioAssay data set” (2004).)
